Results taken from PMC9270327 (Communications Biology, 2022).
Where a name gives a salt, the structure may show the parent alone. Read-outs that look alike come from different tables or passages of the source.

Key:
TMPRSS2 = TMPRSS2 (Homo sapiens, UniProt O15393); assay: Plasma stability: residual TMPRSS2 inhibition after incubation in human plasma
Procedure: The activity of the compounds against the recombinant human enzymes was determined in enzyme inhibition assays. […] The measurements were performed on a Tecan infinite® M1000 and the fluorescence intensity was measured by exciting the AMC fluorophore at 380 nm wavelength and recording emission at 460 nm wavelength. […] Fluorescence intensities and absorption were measured every 2 min for 2 h or as endpoint after 2 h. […] To determine the IC50 values, the concentration-response data were plotted with the program GraphPad prism version 8.4.2 (San Diego, California) and a nonlinear regression fit with the equation [Inhibitor] vs. normalized response was applied. The inhibitory constant Ki was calculated from the IC50 values using the Cheng–Prusoff equation (Ki = IC50/[S]/KM) for competitive reversible inhibitors[66].
The stability of the inhibitors was measured according to a modified procedure from ref. [67]. […] At indicated timepoints, 100 µL samples were taken and mixed with 200 µL of ethanol to precipitate proteins. […] The supernatant was aspirated and analyzed using analytical HPLC. The residual inhibitory constants Ki after incubation was assessed by mixing serial dilutions of the inhibitor with recombinant TMPRSS2 as described above.
Shown are the means ± SD of n=1 experiment performed in triplicates.

[1] = target: T1, TMPRSS2 expressed in HEK293T cells (Homo sapiens, UniProt O15393); assay: Inhibition of cellular TMPRSS2 activity on HEK293T cells transiently expressing TMPRSS2; format: cell-based; settings: 2 h, corrected for mock-transfected cells
T1 construct: host or cells: HEK293T (ATCC)
Procedure: In total, 10,000 Caco-2 cells (ATCC) in 100 µL EMEM medium supplemented with 10% FBS, 100 U/mL penicillin, […] streptomycin, and 2 mM glutamine (all Invitrogen, Germany) were seeded per well in a 96-well plate and incubated at 37 °C for 4 days until full confluency of the cells. The cells were washed two times with PBS and EMEM medium without FBS was added. […] The fluorescence intensity was measured as described above. In all, 20,000 HEK293T cells (ATCC) were seeded in 100 µL DMEM supplemented with 10% FBS, 100 U/mL penicillin, […] streptomycin, and 2 mM glutamine. […] […] […] Fluorescence intensity was measured after 2 h at 37 °C as described above.

[2] = system: SARS-CoV-2 Alpha (B.1.1.7), Caco-2 cells; format: cell-based
[3] = system: lentiviral pseudoparticles carrying SARS-CoV-2 Alpha (B.1.1.7) spike, Caco-2 cells; format: cell-based; settings: for SARS-CoV-2 spike driven entry, Mean (0 nM = 100): Fig. 5b

T1 sequence (O15393 whole entry): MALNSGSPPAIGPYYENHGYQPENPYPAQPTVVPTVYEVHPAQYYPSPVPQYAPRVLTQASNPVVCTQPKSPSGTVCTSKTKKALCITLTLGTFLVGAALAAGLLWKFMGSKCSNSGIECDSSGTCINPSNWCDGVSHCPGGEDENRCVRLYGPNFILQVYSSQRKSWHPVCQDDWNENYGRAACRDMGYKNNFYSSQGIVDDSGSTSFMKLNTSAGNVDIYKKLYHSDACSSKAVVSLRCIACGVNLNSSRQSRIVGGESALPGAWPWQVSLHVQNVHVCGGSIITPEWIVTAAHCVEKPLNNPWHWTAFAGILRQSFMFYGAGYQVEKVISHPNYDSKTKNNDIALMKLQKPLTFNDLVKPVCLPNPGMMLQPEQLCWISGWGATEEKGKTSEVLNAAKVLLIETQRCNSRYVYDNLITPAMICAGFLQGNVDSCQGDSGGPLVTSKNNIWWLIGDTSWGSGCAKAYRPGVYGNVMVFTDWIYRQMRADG
TMPRSS2, sequence (O15393 whole entry): as above

## CN(C)C(=O)COC(=O)Cc1ccc(OC(=O)c2ccc(NC(=N)N)cc2)cc1 [CM, camostat mesylate, reference compound]
TMPRSS2; inhibitor 0.167 nM, 60 min in plasma
  TMPRSS2 activity, Mean (0 nM = 100): 90.9592
TMPRSS2; inhibitor 0.167 nM, 120 min in plasma
  TMPRSS2 activity, Mean (0 nM = 100): 99.9584
TMPRSS2; inhibitor 0.167 nM, 24 h in plasma
  TMPRSS2 activity, Mean (0 nM = 100): 103.994
TMPRSS2; inhibitor 0.167 nM, 10 d in plasma
  TMPRSS2 activity, Mean (0 nM = 100): 99.2067
TMPRSS2; inhibitor 0.167 nM, positive ctrl
  TMPRSS2 activity, Mean (0 nM = 100): 72.6812
TMPRSS2; inhibitor 1.665 nM, 0 min in plasma
  TMPRSS2 activity, Mean (0 nM = 100): 103.981
TMPRSS2; inhibitor 1.665 nM, 30 min in plasma
  TMPRSS2 activity, Mean (0 nM = 100): 95.5323
TMPRSS2; inhibitor 1.665 nM, 60 min in plasma
  TMPRSS2 activity, Mean (0 nM = 100): 85.541
TMPRSS2; inhibitor 1.665 nM, 120 min in plasma
  TMPRSS2 activity, Mean (0 nM = 100): 96.8319
TMPRSS2; inhibitor 1.665 nM, 24 h in plasma
  TMPRSS2 activity, Mean (0 nM = 100): 101.166
TMPRSS2; inhibitor 1.665 nM, 10 d in plasma
  TMPRSS2 activity, Mean (0 nM = 100): 96.8623
TMPRSS2; inhibitor 1.665 nM, positive ctrl
  TMPRSS2 activity, Mean (0 nM = 100): 21.364
TMPRSS2; inhibitor 16.65 nM, 0 min in plasma
  TMPRSS2 activity, Mean (0 nM = 100): 71.7511
TMPRSS2; inhibitor 16.65 nM, 30 min in plasma
  TMPRSS2 activity, Mean (0 nM = 100): 65.1615
TMPRSS2; inhibitor 16.65 nM, 60 min in plasma
  TMPRSS2 activity, Mean (0 nM = 100): 67.6129
TMPRSS2; inhibitor 16.65 nM, 120 min in plasma
  TMPRSS2 activity, Mean (0 nM = 100): 74.7383
TMPRSS2; inhibitor 16.65 nM, 24 h in plasma
  TMPRSS2 activity, Mean (0 nM = 100): 100.72
TMPRSS2; inhibitor 16.65 nM, 10 d in plasma
  TMPRSS2 activity, Mean (0 nM = 100): 95.3646
TMPRSS2; inhibitor 16.65 nM, positive ctrl
  TMPRSS2 activity, Mean (0 nM = 100): 5.9227
TMPRSS2; inhibitor 166.5 nM, 0 min in plasma
  TMPRSS2 activity, Mean (0 nM = 100): 5.478
TMPRSS2; inhibitor 166.5 nM, 30 min in plasma
  TMPRSS2 activity, Mean (0 nM = 100): 3.6809
TMPRSS2; inhibitor 166.5 nM, 60 min in plasma
  TMPRSS2 activity, Mean (0 nM = 100): 3.225
TMPRSS2; inhibitor 166.5 nM, 120 min in plasma
  TMPRSS2 activity, Mean (0 nM = 100): 7.418
TMPRSS2; inhibitor 166.5 nM, 24 h in plasma
  TMPRSS2 activity, Mean (0 nM = 100): 28.8196
TMPRSS2; inhibitor 166.5 nM, 10 d in plasma
  TMPRSS2 activity, Mean (0 nM = 100): 97.9296
TMPRSS2; inhibitor 166.5 nM, positive ctrl
  TMPRSS2 activity, Mean (0 nM = 100): 2.192
TMPRSS2; inhibitor 1665 nM, 0 min in plasma
  TMPRSS2 activity, Mean (0 nM = 100): 4.824
TMPRSS2; inhibitor 1665 nM, 30 min in plasma
  TMPRSS2 activity, Mean (0 nM = 100): 0.6431
TMPRSS2; inhibitor 1665 nM, 60 min in plasma
  TMPRSS2 activity, Mean (0 nM = 100): 1.811
TMPRSS2; inhibitor 1665 nM, 120 min in plasma
  TMPRSS2 activity, Mean (0 nM = 100): 6.253
TMPRSS2; inhibitor 1665 nM, 24 h in plasma
  TMPRSS2 activity, Mean (0 nM = 100): 5.605
TMPRSS2; inhibitor 1665 nM, 10 d in plasma
  TMPRSS2 activity, Mean (0 nM = 100): 88.1928
TMPRSS2; inhibitor 1665 nM, positive ctrl
  TMPRSS2 activity, Mean (0 nM = 100): 0.4038
[1]; 0.5 nM
  normalized fluorescence intensity, HEK293T TMPRSS2, Mean (Fig. 4b): 47.42
[1]; 5 nM
  normalized fluorescence intensity, HEK293T TMPRSS2, Mean (Fig. 4b): 43.185
[1]; 50 nM
  normalized fluorescence intensity, HEK293T TMPRSS2, Mean (Fig. 4b): 9.45
[1]; 500 nM
  normalized fluorescence intensity, HEK293T TMPRSS2, Mean (Fig. 4b): 8.435
[1]; 5000 nM
  normalized fluorescence intensity, HEK293T TMPRSS2, Mean (Fig. 4b): 0.32
[1]; 50000 nM
  normalized fluorescence intensity, HEK293T TMPRSS2, Mean (Fig. 4b): -3.52
[2]; read-out: IC50 SARS-CoV-2 Alpha
  IC50: 16.4 µM
[2]; read-out: IC50 SARS-CoV-2 Alpha (text)
  IC50: 16.4 µM
[3]; Caco-2 cells, luciferase 2 days post transduction, read-out: IC50 pseudotyped lentivirus Alpha
  IC50: 0.0987 µM
[3]; compound 3.2 nM
  SARS-CoV-2 spike driven entry, Mean (0 nM = 100): 71.733
[3]; compound 16 nM
  SARS-CoV-2 spike driven entry, Mean (0 nM = 100): 72.519
[3]; compound 80 nM
  SARS-CoV-2 spike driven entry, Mean (0 nM = 100): 51.5305
[3]; compound 400 nM
  SARS-CoV-2 spike driven entry, Mean (0 nM = 100): 39.483
[3]; compound 2000 nM
  SARS-CoV-2 spike driven entry, Mean (0 nM = 100): 18.526
[3]; compound 10000 nM
  SARS-CoV-2 spike driven entry, Mean (0 nM = 100): 4.853
[3]; compound 50000 nM
  SARS-CoV-2 spike driven entry, Mean (0 nM = 100): 1.159
